Consider 17 compounds from ChEMBL document CHEMBL1201862, “PubChem BioAssay data set” (2004).

Active and inactive are the calls of the source.

Test [1] concerns the target Glyceraldehyde-3-phosphate dehydrogenase (Homo sapiens, UniProt P04406).
The next test addresses Nonstructural protein 1 (Influenza A virus, UniProt Q194T2). Type of test: functional, Influenza A virus (A/California/07/2009(H1N1)).
Test [2] can be described thus: A cytotoxicity screen of small molecule inhibitors of the PhoP region in Salmonella typhi identified in the primary screen. [Related pubchem assays: 1850, 1864, 1985 ]. Type of test: functional.
Test [3] deals with T1, Short transient receptor potential channel 4 (Mus musculus, UniProt Q9QUQ5).
T1 sequence (Q9QUQ5 whole entry): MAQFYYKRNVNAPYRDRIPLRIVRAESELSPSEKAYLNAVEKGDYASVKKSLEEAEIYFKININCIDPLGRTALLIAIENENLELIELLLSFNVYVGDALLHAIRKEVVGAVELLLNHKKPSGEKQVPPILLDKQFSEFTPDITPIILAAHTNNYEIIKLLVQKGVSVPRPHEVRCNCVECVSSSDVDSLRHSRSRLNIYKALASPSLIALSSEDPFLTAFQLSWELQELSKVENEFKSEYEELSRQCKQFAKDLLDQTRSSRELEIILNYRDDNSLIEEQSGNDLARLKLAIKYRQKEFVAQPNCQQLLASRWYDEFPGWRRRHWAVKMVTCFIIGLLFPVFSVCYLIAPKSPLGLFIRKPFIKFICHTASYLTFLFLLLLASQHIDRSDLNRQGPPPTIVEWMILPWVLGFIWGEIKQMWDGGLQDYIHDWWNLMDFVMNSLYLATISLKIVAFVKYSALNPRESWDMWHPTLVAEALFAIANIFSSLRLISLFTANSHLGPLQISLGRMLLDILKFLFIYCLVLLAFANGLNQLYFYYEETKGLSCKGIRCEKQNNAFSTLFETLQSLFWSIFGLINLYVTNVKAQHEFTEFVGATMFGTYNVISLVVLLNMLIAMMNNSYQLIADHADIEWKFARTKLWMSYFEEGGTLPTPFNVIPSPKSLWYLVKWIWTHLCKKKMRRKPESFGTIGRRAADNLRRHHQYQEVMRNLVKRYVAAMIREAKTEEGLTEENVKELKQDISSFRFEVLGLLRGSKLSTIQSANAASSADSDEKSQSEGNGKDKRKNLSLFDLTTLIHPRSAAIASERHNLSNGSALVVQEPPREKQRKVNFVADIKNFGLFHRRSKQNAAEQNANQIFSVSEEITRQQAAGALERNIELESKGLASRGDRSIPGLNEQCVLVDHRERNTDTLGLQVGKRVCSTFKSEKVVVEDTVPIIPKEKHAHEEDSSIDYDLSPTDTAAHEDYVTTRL
Briefly: block of DAMGO-driven TRPC4 calcium entry – cell-based, HEK293 TRPC4/mu-opioid, Fluo-4 calcium, dose response (AID 434942).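 Further: potency of inhibitors blocking the TRPC4 calcium response.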 The format is functional.

Test [4] relates to BJ. Briefly: cells. The format is functional, cell-based. The conditions noted are these: Homo sapiens.
For test [5], the target named is Luciferin 4-monooxygenase (Photinus pyralis, UniProt P08659). As to the kind of experiment: inhibition of purified Photinus pyralis luciferase – biochemical, luminescence, dose response (AID 1891).
The nature of test [6]: DRD fibroblast viability loss – cell-based, non-viral oncogenic, luminescence, dose response (AID 1934). The format is functional. The conditions noted are these: Homo sapiens.
Test [7] concerns BJ. Briefly: BJ-TERT fibroblast viability loss – cell-based, RAS-independent, luminescence, dose response (AID 1933). The format is functional. As to conditions: Homo sapiens.
For test [8], the system named is BJ. As to the kind of experiment: BJ-TERT-LT-ST fibroblast viability loss – cell-based, RAS-independent, luminescence, dose response (AID 1935).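 Further: BJ fibroblasts immortalized with TERT plus LT and ST oncogenes.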 The format is functional. As to conditions: Homo sapiens.
Test [9] is described as follows: Luminescence Cell-Based Dose Confirmation HTS to Identify Inhibitors of Platelet Dense Granule Release. [Related pubchem assays: 1663 (Primary HTS), 1678 (Summary of Project)]. Type of test: functional.
Test [10] in a line: Luminescence Cell-Based Dose Response HTS to Identify Inhibitors of 5'UTR Stem-Loop Driven Prion Protein mRNA Translation in H4 Neuroglioblastoma Cells. [Related pubchem assays: 1827 (Project Summary), 1813 (Primary HTS)]. The format is functional.
A short description of test [11]: luciferase reporter signal suppression in cells – H4 neuroglioma cells, luminescence, dose response (AID 1990). The format is functional, cell-based. (Reporter assays use an easily measured gene product as a stand-in for the process of interest.)
Test [12] is described as follows: alpha-synuclein stem-loop luciferase translation blockers – H4 neuroglioma cells, luminescence, confirmation (AID 1988). The format is functional, cell-based.
The target of test [13] is T2, Microphthalmia-associated transcription factor (Homo sapiens, UniProt O75030).
T2 sequence (O75030 whole entry): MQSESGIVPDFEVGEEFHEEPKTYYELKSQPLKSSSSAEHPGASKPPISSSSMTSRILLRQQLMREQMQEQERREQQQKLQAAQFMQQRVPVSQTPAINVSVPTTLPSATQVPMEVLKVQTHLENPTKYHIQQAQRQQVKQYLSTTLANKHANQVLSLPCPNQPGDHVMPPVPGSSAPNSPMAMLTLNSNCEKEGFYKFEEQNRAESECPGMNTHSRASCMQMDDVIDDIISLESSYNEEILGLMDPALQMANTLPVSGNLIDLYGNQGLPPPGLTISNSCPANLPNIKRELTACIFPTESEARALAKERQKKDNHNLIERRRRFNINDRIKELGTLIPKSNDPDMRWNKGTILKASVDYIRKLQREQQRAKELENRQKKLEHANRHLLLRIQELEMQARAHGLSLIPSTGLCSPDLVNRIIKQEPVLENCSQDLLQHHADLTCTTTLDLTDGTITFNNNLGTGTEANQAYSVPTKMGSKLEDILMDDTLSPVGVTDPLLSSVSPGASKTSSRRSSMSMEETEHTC
Briefly: reducers of TRPM1 reporter luminescence, concentration series – cell-based, SK-MEL-5, cherry-picked, set 3, MITF inhibitor project, dose response (AID 493073).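 Further: SK-MEL-5 melanoma cells with luciferase driven by the MITF target TRPM1 promoter.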 The format is functional.

Sequence of Nonstructural protein 1 (Q194T2 whole entry): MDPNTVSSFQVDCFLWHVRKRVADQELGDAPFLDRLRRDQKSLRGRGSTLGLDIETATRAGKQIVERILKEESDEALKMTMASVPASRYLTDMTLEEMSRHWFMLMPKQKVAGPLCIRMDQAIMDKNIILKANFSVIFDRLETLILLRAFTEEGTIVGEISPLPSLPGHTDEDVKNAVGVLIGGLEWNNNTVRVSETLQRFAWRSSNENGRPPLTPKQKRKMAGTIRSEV
Sequence of Glyceraldehyde-3-phosphate dehydrogenase (P04406 whole entry): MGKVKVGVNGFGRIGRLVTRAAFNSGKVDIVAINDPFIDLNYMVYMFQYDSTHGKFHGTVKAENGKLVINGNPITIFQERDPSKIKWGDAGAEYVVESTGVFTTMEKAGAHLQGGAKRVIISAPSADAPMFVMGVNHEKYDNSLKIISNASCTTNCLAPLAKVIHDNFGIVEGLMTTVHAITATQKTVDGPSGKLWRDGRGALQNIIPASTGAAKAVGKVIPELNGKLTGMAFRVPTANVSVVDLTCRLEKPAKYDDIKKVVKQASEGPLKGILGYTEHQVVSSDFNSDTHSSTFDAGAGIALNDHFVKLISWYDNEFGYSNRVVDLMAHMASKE
Sequence of Luciferin 4-monooxygenase (P08659 whole entry): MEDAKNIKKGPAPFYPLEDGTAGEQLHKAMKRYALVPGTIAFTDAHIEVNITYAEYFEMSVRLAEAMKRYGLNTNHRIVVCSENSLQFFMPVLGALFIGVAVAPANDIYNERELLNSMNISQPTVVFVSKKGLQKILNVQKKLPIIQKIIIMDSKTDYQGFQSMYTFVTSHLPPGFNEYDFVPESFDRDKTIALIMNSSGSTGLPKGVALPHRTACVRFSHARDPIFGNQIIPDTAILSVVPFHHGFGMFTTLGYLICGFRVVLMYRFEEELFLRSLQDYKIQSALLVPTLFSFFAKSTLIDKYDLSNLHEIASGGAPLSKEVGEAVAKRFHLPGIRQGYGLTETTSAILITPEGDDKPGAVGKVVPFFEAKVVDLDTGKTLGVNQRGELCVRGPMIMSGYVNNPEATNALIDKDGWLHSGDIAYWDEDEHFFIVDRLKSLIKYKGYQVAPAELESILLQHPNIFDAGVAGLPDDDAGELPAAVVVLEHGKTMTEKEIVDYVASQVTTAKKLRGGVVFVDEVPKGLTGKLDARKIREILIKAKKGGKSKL

For the compound `COc1cccc(N2C(=O)C(Cl)=C(N3CCN(C)CC3)C2=O)c1`, in test [1], the IC50 was > 50 µM (inconclusive).

As to `O=C1C(=C(c2ccccc2)c2ccccc2)Nc2ccccc21`, the IC50 on Nonstructural protein 1 is 30.3 µM (active).

For `CCCCCN1C(=O)/C(=C/c2c(N3CCc4ccccc4C3)nc3ccccn3c2=O)SC1=S`, the EC50 in [2] is > 50 µM (active).

Consider `OCCNc1nc2ccccc2n1CCN1CCCCC1`, for which the EC50 in test [3] was 3.35 µM (active).

On to `Cc1ccsc1C(=O)Nc1ccc(OCc2ccccc2)cc1`, for which the EC50 in the test on BJ [4] is 34.4 µM (active); in [5], 1.7 µM (active); in test [6], > 150 µM (inconclusive); with BJ [7] it was > 150 µM (not active); with BJ [8], > 150 µM (not active); in [9], 5.83 µM (active).

Regarding `Cc1noc(C)c1S(=O)(=O)N1CCC(Cc2ccccc2)CC1`, in [2], the EC50 was > 50 µM (active).

As for `Cc1ccc(N2C(=O)C(Cl)=C(N3CCN(C)CC3)C2=O)cc1`, the IC50 in [1] is > 50 µM (inconclusive).

As to `COC(=O)c1ccc(Nc2cc(C)nc3ccccc23)cc1`, the EC50 is 16.4 µM (active) in [10], 3.76 µM (active) in test [3], 11.6 µM (active) in test [11] and 7.97 µM (active) in test [12].

As for `c1csc(CNc2nc(-c3cccs3)nc3ccccc23)c1`, the EC50 in [3] is 4.73 µM (active).

`Fc1cccc(Cl)c1CSc1ccc(-c2ccco2)nn1`: the EC50 in test [2] is > 50 µM (active).

`CN1CCN(Cc2c[nH]nc2-c2ccc(F)cc2F)[C@@H](c2ccccc2)C1`: the EC50 in test [3] is 4.22 µM (active).

`O=C1C(Cl)=C(N2CCOCC2)C(=O)N1c1ccc(C(F)(F)F)cc1`: in test [1], the IC50 is > 50 µM (inconclusive).

Regarding `CCC1CCCCN1c1nc(-c2cccc(OC)c2O)nc2ccccc12` (stereo not given), on Nonstructural protein 1, the IC50 was > 100 µM (active).

Take `Cc1ccc(SCc2n[nH]c3c2C(c2cccnc2)C(C#N)=C(N)O3)cc1` (stereo not given): the EC50 in test [2] is > 50 µM (active).

For `O=[N+]([O-])c1cccc(/C=N/c2cc3c(cc2Br)OCCO3)c1`, the IC50 on Nonstructural protein 1 is > 100 µM (active).

For `O=[N+]([O-])c1ccc(/C=N/N=C/c2ccc([N+](=O)[O-])o2)o1`, in test [13], the AC50 is 9.36 µM (active).

As to `CC1CC1C(=O)Nc1nc2ccc(S(C)(=O)=O)cc2s1` (stereo not given), the EC50 in test [2] is > 50 µM (active).

As a reminder, the IC50 is the concentration that gives 50% inhibition. Broadly, the EC50 is the concentration giving half of the maximal effect. In general, AC50 refers to the concentration giving half of the maximal activity seen.
